Reference: ChEMBL document CHEMBL1201862, “PubChem BioAssay data set” (2004)
Each block holds one molecule with its values, some of them ahead of it. Active and inactive are the calls of the source.

Experiments:
[1] = molecular target: 72 kDa type IV collagenase (Homo sapiens, UniProt P08253); assay: Dose Response validation of uHTS RPN11 inhibitor hits using a MMP-2 Fluorescence assay.; type: functional
[2] = molecular target: 26S proteasome non-ATPase regulatory subunit 14 (Homo sapiens, UniProt O00487); assay: inhibition of proteasome subunit RPN11 – biochemical, fluorescence polarization, uHTS hits, confirmation (AID 602368); type: functional
Prothrombin [3] = molecular target: Prothrombin (Bos taurus, UniProt P00735); assay: thrombin protease inhibitors – biochemical, fluorescence polarization, uHTS hits, dose response (AID 602369); type: functional
Large T antigen = Large T antigen (Simian virus 40, UniProt P03070); type: functional, Betapolyomavirus macacae;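 note: Confirmatory-stage PubChem screen for compounds that inhibit SV40 T antigen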
Estrogen receptor = molecular target: T1, Estrogen receptor (Homo sapiens, UniProt P03372);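 note: potency for inhibiting coactivator peptide recruitment to the receptor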
T1 sequence (P03372 whole entry): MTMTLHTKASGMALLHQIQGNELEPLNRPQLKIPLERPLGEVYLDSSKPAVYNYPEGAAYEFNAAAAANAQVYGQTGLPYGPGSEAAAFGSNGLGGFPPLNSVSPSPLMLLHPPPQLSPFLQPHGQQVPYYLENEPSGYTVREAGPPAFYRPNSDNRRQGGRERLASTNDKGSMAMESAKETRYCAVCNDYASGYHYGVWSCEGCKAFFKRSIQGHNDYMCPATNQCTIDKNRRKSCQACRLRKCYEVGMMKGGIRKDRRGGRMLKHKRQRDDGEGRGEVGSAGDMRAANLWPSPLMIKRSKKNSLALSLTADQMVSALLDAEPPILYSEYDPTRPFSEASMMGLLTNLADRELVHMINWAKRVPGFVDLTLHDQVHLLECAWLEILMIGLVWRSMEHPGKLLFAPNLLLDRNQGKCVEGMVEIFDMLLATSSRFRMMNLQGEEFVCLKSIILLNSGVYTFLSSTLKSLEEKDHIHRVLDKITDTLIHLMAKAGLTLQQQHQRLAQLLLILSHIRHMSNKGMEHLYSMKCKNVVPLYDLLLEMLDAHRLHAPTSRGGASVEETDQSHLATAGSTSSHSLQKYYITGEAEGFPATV

Cytochrome P450 3A4 [4] = molecular target: T2, Cytochrome P450 3A4 (Homo sapiens, UniProt P08684); details: Potency
Prothrombin [5] = molecular target: Prothrombin (Homo sapiens, UniProt P00734); assay: Thrombin 1536 HTS Dose Response Confirmation. [Related pubchem assays: 1046 (Thrombin 1536 HTS; hits were confirmed in this assay)]; type: functional
Coagulation factor XII = molecular target: T3, Coagulation factor XII (Homo sapiens, UniProt P00748); type: functional;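 note: activated factor XIIa alpha cleaving a fluorogenic AMC peptide substrate; inhibitor potency from loss of enzyme activity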
T3 sequence (P00748 whole entry): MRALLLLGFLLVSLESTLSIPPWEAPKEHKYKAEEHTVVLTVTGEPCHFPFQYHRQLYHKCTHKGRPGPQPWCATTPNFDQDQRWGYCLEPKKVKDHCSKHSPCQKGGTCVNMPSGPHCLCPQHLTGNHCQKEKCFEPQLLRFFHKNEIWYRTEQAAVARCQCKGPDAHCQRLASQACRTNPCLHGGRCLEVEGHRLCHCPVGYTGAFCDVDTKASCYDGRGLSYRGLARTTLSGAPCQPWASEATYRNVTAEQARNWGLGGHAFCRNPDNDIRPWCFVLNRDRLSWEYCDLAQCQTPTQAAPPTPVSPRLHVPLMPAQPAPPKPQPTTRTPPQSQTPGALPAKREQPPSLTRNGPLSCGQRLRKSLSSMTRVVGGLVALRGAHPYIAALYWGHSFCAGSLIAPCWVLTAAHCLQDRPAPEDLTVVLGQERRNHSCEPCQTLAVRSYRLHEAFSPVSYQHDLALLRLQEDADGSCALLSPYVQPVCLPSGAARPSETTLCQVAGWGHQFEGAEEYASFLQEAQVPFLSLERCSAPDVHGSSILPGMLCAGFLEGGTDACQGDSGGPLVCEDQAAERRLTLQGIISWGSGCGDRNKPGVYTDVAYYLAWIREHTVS

cells [6] = type: functional, cell-based
cells [7] = type: functional, cell-based; remark: listed apart in the source
[8] = reduced cellular PGC1a acetyl-lysine signal – cell-based, cherry-picked samples, dose response (AID 720514); type: functional;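 note: potency may reflect raised or lowered acetylation signal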
[9] = molecular target: DNA dC->dU-editing enzyme APOBEC-3G (Homo sapiens, UniProt Q9HC16); assay: Dose Response confirmation of small molecule APOBEC3G DNA Deaminase Inhibitors via a fluorescence-based single-stranded DNA deaminase assay. [Related pubchem assays (depositor defined):AID493012, AID493028]; type: functional
[10] = intracellular Trypanosoma cruzi inhibitors in host cells – cell-based, plate reader, cherry-pick samples, set 3, dose response (AID 651818); type: functional;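 note: compounds incubated with infected cells for about four days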
[11] = molecular target: Eukaryotic translation initiation factor 4E (Mus musculus, UniProt P63073); assay: blockers of eIF4G binding by eIF4E – biochemical, TR-FRET, dose response (AID 855); type: functional;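 note: potency for disrupting eIF4E binding to eIF4GI seen as loss of FRET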
Cytochrome P450 2C9 = Cytochrome P450 2C9 (Homo sapiens, UniProt P11712)
Cytochrome P450 3A4 [12] = molecular target: T2, Cytochrome P450 3A4
Cytochrome P450 1A2 = molecular target: T4, Cytochrome P450 1A2 (Homo sapiens, UniProt P05177);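 note: PubChem cytochrome P450 panel assay, CYP1A2 panel member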
T4 sequence (P05177 whole entry): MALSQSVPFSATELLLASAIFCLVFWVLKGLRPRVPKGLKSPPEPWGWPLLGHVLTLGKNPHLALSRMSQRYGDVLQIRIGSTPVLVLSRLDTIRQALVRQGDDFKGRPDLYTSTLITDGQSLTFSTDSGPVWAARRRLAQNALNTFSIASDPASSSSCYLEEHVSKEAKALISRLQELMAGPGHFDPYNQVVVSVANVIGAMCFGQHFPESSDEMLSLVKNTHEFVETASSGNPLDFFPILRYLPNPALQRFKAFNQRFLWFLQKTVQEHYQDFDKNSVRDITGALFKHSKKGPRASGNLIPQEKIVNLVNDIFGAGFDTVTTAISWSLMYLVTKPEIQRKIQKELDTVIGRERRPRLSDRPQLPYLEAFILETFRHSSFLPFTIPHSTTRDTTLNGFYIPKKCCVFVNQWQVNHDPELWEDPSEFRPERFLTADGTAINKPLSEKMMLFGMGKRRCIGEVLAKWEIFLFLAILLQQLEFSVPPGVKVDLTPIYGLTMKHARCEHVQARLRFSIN

H9c2 = assay: cells; type: functional, cell-based; details: Rattus norvegicus, H9c2, Myocardium;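 note: confirmatory concentration-response retest of ultra-high-throughput screening hits for modulation of myocardial damage; cell death induced by hydrogen peroxide oxidative stress; compound pretreatment for 60 min then peroxide exposure for 2 h; potency is for protecting the cells against peroxide damage rather than for killing them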
[13] = molecular target: T5, Heat shock factor protein 1 (Mus musculus, UniProt P38532); assay: decrease of HSF1-responsive luciferase luminescence – cell-based, NIH3T3, dose retest, confirmation (AID 2382); type: functional;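 note: NIH3T3 fibroblasts with HSF1-driven luciferase reporter stressed by proteasome inhibitor MG132; luminescence from HSF1-driven luciferase expression after 8 hours of MG132 stress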
T5 sequence (P38532 whole entry): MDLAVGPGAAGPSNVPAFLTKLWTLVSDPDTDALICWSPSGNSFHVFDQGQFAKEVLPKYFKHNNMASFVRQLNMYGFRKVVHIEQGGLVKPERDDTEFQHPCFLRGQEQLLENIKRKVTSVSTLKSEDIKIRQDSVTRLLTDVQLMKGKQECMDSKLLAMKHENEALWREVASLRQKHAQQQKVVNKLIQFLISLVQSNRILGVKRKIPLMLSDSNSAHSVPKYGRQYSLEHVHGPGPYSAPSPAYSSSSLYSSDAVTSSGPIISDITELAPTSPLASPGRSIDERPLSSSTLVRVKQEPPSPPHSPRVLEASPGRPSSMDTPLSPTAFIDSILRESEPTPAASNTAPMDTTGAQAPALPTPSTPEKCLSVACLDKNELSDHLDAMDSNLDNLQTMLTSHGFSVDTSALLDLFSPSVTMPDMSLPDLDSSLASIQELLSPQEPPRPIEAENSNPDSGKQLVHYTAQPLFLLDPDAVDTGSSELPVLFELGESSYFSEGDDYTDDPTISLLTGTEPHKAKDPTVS

[14] = viability of PTEN-deleted HCT116 cells – cell-based, HCT116 PTEN knockout, dose response (AID 1047); type: functional;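 note: HCT116 colon tumor cells with PTEN knocked out; cells exposed to compound for 60 hours before readout; potency for loss of cell viability measured by luminescence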
[15] = viability of HCT116 lacking mutant beta-catenin – cell-based, human colon tumor, dose response (AID 1045); type: functional;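 note: HCT116 colon tumor cells with beta catenin knocked out; cells exposed to compound for 60 hours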

Chain of Eukaryotic translation initiation factor 4E (P63073 whole entry): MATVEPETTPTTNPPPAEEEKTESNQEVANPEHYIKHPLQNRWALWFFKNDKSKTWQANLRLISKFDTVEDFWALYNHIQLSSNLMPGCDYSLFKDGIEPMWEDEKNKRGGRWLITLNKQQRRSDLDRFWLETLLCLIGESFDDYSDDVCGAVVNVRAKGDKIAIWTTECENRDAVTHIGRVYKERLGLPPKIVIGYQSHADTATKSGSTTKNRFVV
T2 sequence (P08684 whole entry): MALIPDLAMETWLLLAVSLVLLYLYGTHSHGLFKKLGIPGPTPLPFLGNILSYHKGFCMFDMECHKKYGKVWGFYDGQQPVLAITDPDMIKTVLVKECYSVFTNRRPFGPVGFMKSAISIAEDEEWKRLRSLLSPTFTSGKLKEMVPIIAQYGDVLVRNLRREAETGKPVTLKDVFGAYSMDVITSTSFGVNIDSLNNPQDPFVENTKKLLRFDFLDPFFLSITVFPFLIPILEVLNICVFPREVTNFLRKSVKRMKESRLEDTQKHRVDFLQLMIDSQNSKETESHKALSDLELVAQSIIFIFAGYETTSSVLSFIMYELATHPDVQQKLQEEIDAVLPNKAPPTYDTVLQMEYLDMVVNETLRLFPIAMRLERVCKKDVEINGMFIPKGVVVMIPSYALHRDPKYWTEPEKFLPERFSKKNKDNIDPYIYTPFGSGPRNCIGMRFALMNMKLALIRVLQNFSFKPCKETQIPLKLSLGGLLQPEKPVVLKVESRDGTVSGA
Chain of 72 kDa type IV collagenase (P08253 whole entry): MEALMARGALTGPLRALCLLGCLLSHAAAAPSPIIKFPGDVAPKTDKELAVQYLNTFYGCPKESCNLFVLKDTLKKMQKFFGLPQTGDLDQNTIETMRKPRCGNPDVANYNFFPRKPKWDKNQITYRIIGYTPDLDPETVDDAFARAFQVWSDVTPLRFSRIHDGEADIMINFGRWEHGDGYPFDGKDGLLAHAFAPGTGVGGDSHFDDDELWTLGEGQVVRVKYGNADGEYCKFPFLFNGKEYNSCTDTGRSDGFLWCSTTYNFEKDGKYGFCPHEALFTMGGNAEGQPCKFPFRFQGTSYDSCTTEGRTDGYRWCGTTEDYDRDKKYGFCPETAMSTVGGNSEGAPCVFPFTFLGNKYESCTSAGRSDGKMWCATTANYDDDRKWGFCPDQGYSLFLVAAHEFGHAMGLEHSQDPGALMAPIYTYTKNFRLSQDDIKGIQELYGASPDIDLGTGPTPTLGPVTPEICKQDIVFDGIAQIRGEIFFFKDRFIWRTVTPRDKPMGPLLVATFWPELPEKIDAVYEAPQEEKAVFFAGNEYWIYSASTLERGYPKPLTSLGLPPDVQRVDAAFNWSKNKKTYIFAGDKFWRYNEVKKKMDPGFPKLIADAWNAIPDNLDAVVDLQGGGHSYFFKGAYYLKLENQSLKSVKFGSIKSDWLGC
Chain of 26S proteasome non-ATPase regulatory subunit 14 (O00487 whole entry): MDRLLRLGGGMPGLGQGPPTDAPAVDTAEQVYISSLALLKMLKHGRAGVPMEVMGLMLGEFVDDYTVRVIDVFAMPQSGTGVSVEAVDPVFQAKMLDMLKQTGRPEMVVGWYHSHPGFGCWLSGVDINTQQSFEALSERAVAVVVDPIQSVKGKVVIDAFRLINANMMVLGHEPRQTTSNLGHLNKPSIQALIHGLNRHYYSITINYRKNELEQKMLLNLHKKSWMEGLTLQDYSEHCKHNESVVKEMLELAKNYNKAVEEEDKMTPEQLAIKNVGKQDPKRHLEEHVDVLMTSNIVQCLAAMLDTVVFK
Chain of Cytochrome P450 2C9 (P11712 whole entry): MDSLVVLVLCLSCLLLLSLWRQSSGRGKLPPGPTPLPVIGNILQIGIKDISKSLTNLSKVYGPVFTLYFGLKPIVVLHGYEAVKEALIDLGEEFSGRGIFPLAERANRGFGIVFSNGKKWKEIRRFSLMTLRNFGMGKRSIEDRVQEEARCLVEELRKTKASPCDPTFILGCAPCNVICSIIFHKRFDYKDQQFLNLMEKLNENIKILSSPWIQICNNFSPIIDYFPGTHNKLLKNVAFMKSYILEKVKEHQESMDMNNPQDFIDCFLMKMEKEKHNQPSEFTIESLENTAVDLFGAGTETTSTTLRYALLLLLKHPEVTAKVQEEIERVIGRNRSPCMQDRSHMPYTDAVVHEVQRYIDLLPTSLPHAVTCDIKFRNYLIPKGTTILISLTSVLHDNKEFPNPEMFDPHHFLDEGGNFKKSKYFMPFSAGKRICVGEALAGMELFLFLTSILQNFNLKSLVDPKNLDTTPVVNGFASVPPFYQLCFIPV
Chain of DNA dC->dU-editing enzyme APOBEC-3G (Q9HC16 whole entry): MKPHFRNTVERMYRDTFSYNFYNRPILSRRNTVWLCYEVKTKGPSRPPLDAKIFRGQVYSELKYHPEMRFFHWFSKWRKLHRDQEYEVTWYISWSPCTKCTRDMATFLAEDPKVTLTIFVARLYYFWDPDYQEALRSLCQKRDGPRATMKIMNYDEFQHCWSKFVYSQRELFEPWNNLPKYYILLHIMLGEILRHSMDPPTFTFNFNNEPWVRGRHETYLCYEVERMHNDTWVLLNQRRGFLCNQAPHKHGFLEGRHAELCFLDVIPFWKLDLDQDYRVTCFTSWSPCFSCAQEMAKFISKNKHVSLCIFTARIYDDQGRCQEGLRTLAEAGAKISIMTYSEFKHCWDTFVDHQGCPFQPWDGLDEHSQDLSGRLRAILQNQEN
Chain of Large T antigen (P03070 whole entry): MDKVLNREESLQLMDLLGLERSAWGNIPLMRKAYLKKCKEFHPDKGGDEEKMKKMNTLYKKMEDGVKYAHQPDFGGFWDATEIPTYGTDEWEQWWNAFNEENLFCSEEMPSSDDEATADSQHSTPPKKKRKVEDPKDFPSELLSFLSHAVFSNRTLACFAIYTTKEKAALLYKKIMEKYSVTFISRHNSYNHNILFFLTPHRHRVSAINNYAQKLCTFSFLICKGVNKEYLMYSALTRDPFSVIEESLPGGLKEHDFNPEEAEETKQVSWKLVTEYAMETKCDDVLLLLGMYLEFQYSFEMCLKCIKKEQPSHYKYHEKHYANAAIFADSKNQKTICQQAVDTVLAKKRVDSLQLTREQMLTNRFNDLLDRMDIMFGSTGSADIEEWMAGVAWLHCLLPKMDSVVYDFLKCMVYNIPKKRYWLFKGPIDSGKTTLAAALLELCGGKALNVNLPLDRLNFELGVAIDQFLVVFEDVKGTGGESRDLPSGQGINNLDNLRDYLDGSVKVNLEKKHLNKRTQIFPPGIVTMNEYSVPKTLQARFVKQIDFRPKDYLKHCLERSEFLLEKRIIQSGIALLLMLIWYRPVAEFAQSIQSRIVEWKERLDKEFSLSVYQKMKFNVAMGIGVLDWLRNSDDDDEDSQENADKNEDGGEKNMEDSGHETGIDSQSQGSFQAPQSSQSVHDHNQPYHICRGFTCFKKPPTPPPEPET

Compound: COc1cc(/C=C2\N=C3CCCCCN3C2=O)ccc1O
IC50 [1]: > 100 µM (inactive) | IC50 [2]: 14.8 µM (active) | IC50 (Prothrombin [3]): 29.7 µM (active) | IC50 (Large T antigen): 9.11 µM (active)

Compound: O=c1c(O)c(-c2ccc(O)c(O)c2)oc2c(OC3OC(CO)C(O)C(O)C3O)c(O)cc(O)c12 (stereo not given)
AC50 (Cytochrome P450 3A4 [4]): 39.8 µM (inconclusive)

Compound: Cc1nc(NCCc2ccccc2F)c(C#N)c(C)c1[N+](=O)[O-]
IC50 (Prothrombin [5]): > 50 µM (not active)

Compound: CCOC(=O)C1CCN(C(=O)CCc2nc3sc4c(c3c(=O)[nH]2)CCCC4)CC1
IC50 [1]: > 100 µM (inactive) | IC50 [2]: 31.6 µM (active) | IC50 (Prothrombin [3]): 36.5 µM (active)

Compound: CCOC(=O)c1c(S(=O)(=O)N2CCCC2)c(C)n(C)c1C
EC50 (cells [6]): > 350 µM (not active) | EC50 (cells [7]): > 350 µM (not active)

Compound: O=C(C1CC1)N1C[C@@H]2N[C@H](C1)[C@@H]2c1ccc(/C=C/c2ccccc2)cc1
AC50 [8]: 32.3 µM (active)

Compound: C[C@@H]1CN([C@@H](C)CO)C(=O)c2cccc(NS(=O)(=O)c3cccs3)c2O[C@H]1CN(C)Cc1ccc(C(=O)Nc2ccccc2N)cc1
AC50 [10]: 5.68 µM (active)

Compound: CCc1c(C)sc(NC(=O)C2CCCCC2C(=O)O)c1C(N)=O (stereo not given)
IC50 [11]: > 64 µM (inactive)

Compound: CCN1C(=O)c2[nH]nc(C(=O)OC)c2C1=O
IC50 (Coagulation factor XII): > 50 µM (inactive)

Compound: CC/N=C1\SC(CC(=O)NC(C)C)C(=O)N1CC (stereo not given)
EC50 (cells [6]): > 350 µM (not active) | EC50 (cells [7]): > 350 µM (not active)

Compound: COc1ccc(Oc2c(Cl)cnn(-c3ccccc3)c2=O)cc1
AC50 (Cytochrome P450 2C9): 11.2 µM (inconclusive) | AC50 [8]: 19.7 µM (active)

Compound: CCN(CC)CCCNC(=O)C1c2ccccc2C(=O)N(C)C1c1ccc(OC)cc1 (stereo not given)
EC50 (cells [6]): > 350 µM (not active) | EC50 (cells [7]): > 350 µM (not active)

Compound: O=[N+]([O-])c1cc(-c2nnc(O)c3ccccc23)ccc1NCCCO
IC50 (H9c2): 16.3 µM (active) | AC50 [8]: 25 µM (active)

Compound: CCOc1cc(C(=S)N2CCOCC2)ccc1O
IC50 [9]: 42.8 µM (active) | IC50 [11]: > 64 µM (inactive)

Compound: O=C(Nc1ccc(F)cc1)Nc1nnc(-c2ccncc2)s1
IC50 [1]: > 100 µM (inactive) | EC50 [14]: 22.4 µM (active) | IC50 [2]: 23.2 µM (active) | EC50 [15]: 25.9 µM (active) | IC50 (Prothrombin [3]): 65.5 µM (active)

Compound: C[C@@H]1CN([C@H](C)CO)C(=O)Cc2cc(NC(=O)CCCCCC(=O)Nc3ccccc3N)ccc2O[C@@H]1CN(C)Cc1ccc(Cl)c(Cl)c1
AC50 [10]: 4.01 µM (active)

Compound: Cc1ccc(NC2CCCN(C(=O)C3CCCCC3)C2)cc1C (stereo not given)
EC50 (cells [6]): > 350 µM (not active) | EC50 (cells [7]): > 350 µM (not active)

Compound: C[C@H](CO)N1C[C@H](C)[C@H](CN(C)S(=O)(=O)c2ccc(Cl)cc2)Oc2c(NC(=O)CCCCCC(=O)Nc3ccccc3N)cccc2C1=O
AC50 [10]: 1.95 µM (active)

Compound: c1ccc(-n2nnc3cnccc32)cc1
IC50 [11]: > 64 µM (inactive)

Results, then the molecule that gave them:

IC50 (Estrogen receptor): > 50 µM (not active)
Compound: COc1ccc(Cc2nc3ccc(S(=O)(=O)N4CCOCC4)cc3[nH]2)cc1

IC50 (Estrogen receptor): 38.5 µM (not active)
Compound: COC(=O)c1ccc(CSc2nc3c(cnn3-c3ccc(C)c(C)c3)c(=O)[nH]2)o1

IC50 (Coagulation factor XII): > 50 µM (inactive)
Compound: Cc1cc(C)n(C(=O)CNc2cccc(Cl)c2C)n1

AC50 (Cytochrome P450 3A4 [4]): 39.8 µM (inconclusive)
Compound: CC(CCC(=O)O)(c1ccc(O)cc1)c1ccc(O)cc1

IC50 [1]: > 100 µM (inactive) | IC50 [2]: 35.2 µM (active) | IC50 (Prothrombin [3]): 50.4 µM (active)
Compound: CC(=O)C1=C(O)C(=CC=Cc2ccccc2)OC1=O

IC50 (Estrogen receptor): 22.3 µM (active)
Compound: CC(C)CC(=O)Nc1ccc(C(=O)COc2ccc(-c3nnco3)cc2)cc1

IC50 [9]: 55.8 µM (active)
Compound: O=C(CC1Sc2ncnn2C1=O)Nc1ccc(Br)cc1 (stereo not given)

AC50 (Cytochrome P450 2C9): 2.24 µM (inconclusive) | AC50 (Cytochrome P450 3A4 [12]): 7.08 µM (inconclusive) | AC50 (Cytochrome P450 1A2): 5.62 µM (inconclusive) | IC50 [11]: > 64 µM (inactive)
Compound: Cc1ccc(SCc2cc(=O)[nH]c(NC(N)=Nc3ccc(C)c(C)c3)n2)cc1

IC50 (Coagulation factor XII): > 50 µM (inactive)
Compound: Cc1ccc(C(=O)NCCN2CCNC2=O)cc1

IC50 (Estrogen receptor): > 50 µM (not active)
Compound: COc1ccc(N(CN2C(=O)C3C4C=CC(C4)C3C2=O)C(=O)c2ccco2)cc1 (stereo not given)

IC50 (Prothrombin [5]): 1.48 µM (active) | EC50 [13]: > 195 µM (not active)
Compound: O=C(c1cccs1)n1nc(-c2ccco2)nc1SCc1ccccc1

AC50 (Cytochrome P450 3A4 [4]): 0.251 µM (inconclusive)
Compound: CC(Oc1ccccc1)C(=O)NC1C(=O)N2C(C(=O)O)C(C)(C)S[C@@H]12 (stereo not given in full)

AC50 (Cytochrome P450 3A4 [4]): 3.98 µM (inconclusive)
Compound: CCN1C(C)=C(C(=O)OC)C(c2ccccc2)N2C(=O)[C@@]3(C(=O)OC)O[C@@]12C1C(=O)CCCC13 (stereo not given in full)

IC50 (Prothrombin [5]): 9.18 µM (active)
Compound: N#Cc1ccccc1NC(=O)COC(=O)COc1ccccc1[N+](=O)[O-]
